Results as given in US20170121295A1, “POLYCYCLIC LPA1 ANTAGONIST AND USES THEREOF” (AMIRA PHARMACEUTICALS, INC., priority 2010, published 2017).

Key:
[1] = Metabolite identification in liver microsomes; assay type: in vitro ADME, rat, dog, monkey, human; conditions: 30 μM Compound 1, 60 minutes
Description: To determine the qualitative metabolic profile, 30 μM of Compound 1 was incubated aerobically with rat, dog, monkey, or human liver microsomes (1 mg/mL). The incubations were performed in phosphate buffer at pH 7.4, 37° C., with the reaction initiated by the addition of P-NADPH, GSH and/or UDPGA (1, 5 and 2 mM final concentration, respectively). The reaction was terminated by the addition of 3 times incubation volume of acetonitrile after 60 minutes. The sample was centrifuged and the supernatant was transferred, nitrogen blow dried and reconstituted in 50% acetonitrile in water for LC/MS analysis.
(§1) LC/MS/MS analysis was carried out with a Sciex API-4000Qtrap tandem mass spectrometer (Applied Biosystems/Life Technologies, Carlsbad, Calif.) interfaced to a high-performance liquid chromatography system consisting of an Agilent 1200 series pump (Foster City, Calif.) and a LEAP Technologies PAL autoinjector (Carrboro, N.C.).
(§2) Parent/metabolite analysis was conducted in the positive ion mode (ESI) by multiple reaction monitoring of parent. The mobile phases contained 10 mM ammonium acetate in water with 0.05% formic acid (solvent A) and 10 mM ammonium acetate in 50% acetonitrile/50% methanol with 0.05% formic acid (solvent B). For Compound 1, the flow rate was maintained at 1 mL/min and the total run time was 2.5 min. Analytes were separated on a YMC ODS-AQ column (2.1×150 mm; 3 μm) and eluted with a linear gradient as follows: • 1. mobile phase was held for 0.5 min at 5% B, • 2. B was increased from 5% to 95% over the next 0.2 min, • 3. B was held constant for 1.3 min at 95%, and • 4. B was returned to the initial gradient conditions.
(§3) GSH adducts were investigated in microsomes, hepatocytes and rat bile using several methods including the neutral loss of pyroglutamate (129 Da) as well as a precursor ion scans of Compound 1 (105 Da, 318 Da and 438 Da).
For metabolite quantitation, the flow rate was maintained at 0.25 mL/min and the total run time was 60 min. Analytes were separated using a linear gradient as follows: • 1. mobile phase was held for 5 min at 5% B, • 2. […]

[2] = Metabolite identification in hepatocytes; assay type: in vitro ADME, rat, dog, monkey, human; conditions: 30 μM Compound 1
Description: Rat, dog, monkey, or human hepatocytes were thawed according to the supplier's instructions. Cells were counted using the Trypan Blue method, and then diluted to 1×10^6 viable cells/ml with KB medium. Compound 1 was tested at 30 μM and incubated for up to 2 hours in rat hepatocytes and 4 hours in dog, monkey or human hepatocytes at 37° C. Reactions were terminated with addition of 3 times incubation volume of acetonitrile, centrifuged, and supernatants were transferred, nitrogen blow dried and reconstituted in 50% acetonitrile in water for LC/MS analysis.
as §1, §2, §3
For metabolite quantitation, the flow rate was maintained at 0.25 mL/min and the total run time was 60 min. Analytes were separated using a linear gradient as follows: • 1. mobile phase was held for 5 min at 5% B, • 2. B was increased from 5% to 95% over the next 45 min. • 3. […]

[3] = Metabolites generated in vivo (rat bile and urine, rat and dog plasma); conditions: Compound 2 IV 2 mg/kg, bile duct cannulated rats
Description: Compound 2 (2 mg/kg) was administered intravenously (IV) to fasted rats as a solution in 0.9% saline via a bolus injection into the jugular vein (2 mg/mL; […]).
Rats with surgically placed bile duct and jugular vein cannula were purchased from Charles River Laboratories and allowed to acclimate for 2 days. Compound 2 was intravenously dosed (2 mg/kg) to three rats as a solution in 0.9% saline (2 mg/mL; 1 mL/kg). Bile samples were collected at time-points 0-2, 2-5 and 5-8, and urine samples were collected at time-points 0-4 and 4-8 hrs post-dose in 8 mL scintillation vials and stored at −40° C. until analysis.
Concentrations of Compound 1 in rat plasma were determined by LC-MS/MS after protein precipitation. Rat plasma (100 μL) was treated with 400 μL of internal standard solution (ISTD, buspirone in acetonitrile containing 1.5% acetic acid) to precipitate proteins. Samples were vortexed and then centrifuged for 10 min at approximately 4,000 rpm (3700×g) at 4° C. (Beckman centrifuge, Brea, Calif.).
as §2
For metabolite quantitation, the flow rate was maintained at 0.25 mL/min and the total run time was 60 min. Analytes were separated using a linear gradient as follows: • 1. mobile phase was held for 5 min at 5% B, • 2. B was increased from 5% to 95% over the next 45 min. • 3. B was held constant for 5 min at 95%, and • 4. B was returned to the initial gradient conditions

[4] = Gravimetric Vapour Sorption (GVS); assay type: physicochemical
Description: In some embodiments, sorption isotherms were obtained using a SMS DVS Intrinsic moisture sorption analyzer, controlled by SMS Analysis Suite software. The sample temperature was maintained at 25° C. by the instrument controls. The humidity was controlled by mixing streams of dry and wet nitrogen, with a total flow rate of 200 ml·min−1. The relative humidity was measured by a calibrated Rotronic probe (dynamic range of 1.0-100% RH), located near the sample. The weight change (mass relaxation) of the sample as a function of % RH was constantly monitored by the microbalance (accuracy ±0.005 mg). Typically 5-20 mg of sample was placed in a tared mesh stainless steel basket under ambient conditions. The sample was loaded and unloaded at 40% RH and 25° C. (typical room conditions). A moisture sorption isotherm was performed as outlined below (2 scans giving 1 complete cycle). The standard isotherm was performed at 25° C. at 10% RH intervals over a 0.5-90% RH range.
The sample was recovered after completion of the isotherm and re-analyzed by XRPD.

[5] = Solid form stability on storage at elevated relative humidity (XRPD); assay type: physicochemical
Source text: X-Ray powder diffraction patterns were collected on a Bruker AXS C2 GADDS or Bruker AXS D8 Advance diffractometer.
X-Ray Powder Diffraction patterns were collected on a Bruker D8 diffractometer using Cu Kα radiation (40 kV, 40 mA), θ−2θ goniometer, and divergence of V4 and receiving slits, a Ge monochromator and a Lynxeye detector. The instrument was performance checked using a certified Corundum standard (NIST 1976). The software used for data collection was Diffrac Plus XRD Commander v2.5.0 and the data were analyzed and presented using Diffrac Plus EVA v 11.0.0.2 or v 13.0.0.2. Samples were run under ambient conditions as flat plate specimens using powder. Approximately 5 mg of the sample was gently packed into a cavity cut into polished, zero-background (510) silicon wafer. The sample was rotated in its own plane during analysis. The details of the data collection are: • Angular range: 2 to 42° 2θ • Step size: 0.05° 2θ • Collection time: 0.5 s·step^−1

[6] = Solubility assessment at various pH levels (solubility profile); assay type: physicochemical; conditions: 0.15M NaCl solution, saline or isotonic, thermodynamic from solid
Description: For solubility assessment at various pH levels sufficient material to produce a maximum concentration of 10 mg·ml^−1 of API was treated with 0.15M NaCl solution and then the pH adjusted with HCl or NaOH solutions to achieve the desired pH levels. The suspensions were allowed to equilibrate for 2 hours and the pH measured and adjusted if necessary. Suspensions were then filtered and the amount of dissolved API quantified by HPLC against a standard reference solution.
Analysis was performed on an Agilent HP1100 series system equipped with a diode array detector and using ChemStation software vB.02.01-SR1.
The solubility of both the free acid and amorphous sodium salt was determined at a range of pH values.

[7] = 40° C./75% RH for one week, sodium salt

## Cc1noc(-c2ccc(-c3ccc(C4(C(=O)ON[C@H](C=O)CCC(=O)O)CC4)cc3)cc2)c1NC(=O)O[C@H](C)c1ccccc1 [Compound M1]
[1]
  metabolite observed in liver microsomes: major metabolites
[2]
  metabolite observed in hepatocytes: major metabolites
[3]
  metabolite observed in rat bile: major metabolites

## Cc1noc(-c2ccc(-c3ccc(C4(C(=O)[O-])CC4)cc3)cc2)c1NC(=O)O[C@H](C)c1ccccc1.[Na+] [Amorphous Compound 2, 1-{4′-[3-methyl-4-((R)-1-phenyl-ethoxycarbonylamino)-isoxazol-5-yl]-biphenyl-4-yl}-cyclopropanecarboxylic acid, sodium salt]
[4]
  change of form after GVS analysis (XRPD): No change of form is observed
[4]; 25° C.
  mass gain between 0% and 90% relative humidity: more than 20%
[5]; [7]
  XRPD / solid form after storage: remains largely amorphous

## Cc1noc(-c2ccc(-c3ccc(C4(C(=O)[O-])CC4)cc3)cc2)c1NC(=O)O[C@H](C)c1ccccc1.[Na+] [Crystalline Compound 2 (Pattern 1), 1-{4′-[3-methyl-4-((R)-1-phenyl-ethoxycarbonylamino)-isoxazol-5-yl]-biphenyl-4-yl}-cyclopropanecarboxylic acid, sodium salt]
[4]
  hygroscopicity (comparison): lower hygroscopicity than its amorphous counterpart
[5]; 25° C./95% RH, a week
  XRPD / solid form after storage: no loss of crystallinity
[5]; [7]
  XRPD / solid form after storage: no loss of crystallinity

## Cc1noc(-c2ccc(-c3ccc(C4(C(=O)O)CC4)cc3)cc2)c1NC(=O)O[C@H](C)c1cccc(O)c1 [Compound M4]
[1]
  metabolite observed in liver microsomes: observed
[2]
  metabolite observed in hepatocytes: observed
[3]
  metabolite observed in rat bile: observed

## Cc1noc(-c2ccc(-c3ccc(C4(C(=O)[O-])CC4)cc3)cc2)c1NC(=O)O[C@H](C)c1ccccc1.[Na+] [Compound 2 (Amorphous)]
[6]; Target pH 3, pH adjusted with HCl or NaOH
  solubility at 2 h: < 1 µg/mL
[6]; Target pH 4, pH adjusted with HCl or NaOH
  solubility at 2 h: < 1 µg/mL
[6]; Target pH 5, pH adjusted with HCl or NaOH
  solubility at 2 h: < 1 µg/mL
[6]; Target pH 6, pH adjusted with HCl or NaOH
  solubility at 2 h: 1.7 µg/mL
[6]; Target pH 7, pH adjusted with HCl or NaOH
  solubility at 2 h: 300 µg/mL
[6]; Target pH 8, pH adjusted with HCl or NaOH
  solubility at 2 h: 5600 µg/mL
[6]; Target pH 9, pH adjusted with HCl or NaOH
  solubility at 2 h: 17000 µg/mL
[6]; Target pH 11, pH adjusted with HCl or NaOH
  solubility at 2 h: 16000 µg/mL
